Measurements from ChEMBL document CHEMBL5034037, “Synthesis, Characterization, and Preclinical Evaluation of a Small-Molecule Prostate-Specific Membrane Antigen-Targeted Monomethyl Auristatin E Conjugate” (J Med Chem, 2021).
pIC50: −log10 of the molar value. Active and inactive are the calls of the source. The rule behind the calls is not given here. *1 amine or outer side, *2 acyl side, *3 side chain or, on linkers, in order; H or OH if unused. Where a SMILES comes first, the peptide text is derived from it. [ ]: non-standard residue; d: D form. The star is where a group is joined. GluureaLys(ε-3-ClBenzyl) = O=C(O)CC[C@H](NC(=O)N[C@@H](CCCCN(Cc1cccc(Cl)c1)*)C(=O)O)C(=O)O; Dolaproine = CO[C@@H]([C@@H]1CCCN1)[C@@H](C)C(=O)O; Dil = CC[C@H](C)[C@H](NC)[C@@H](CC(=O)O)OC; X1 = O=C(CCCc1cn(CCCN[*:1])nn1)[*:2]; PABC = O=C(OCc1ccc(N[*:1])cc1)[*:2]; X2 = C[C@@H](N*)[C@@H](O)c1ccccc1; Cit = NC(=O)NCCC[C@H](N)C(=O)O; Suc = O=C(CCC(=O)[*:2])[*:1]; NMeV = CN[C@H](C(=O)O)C(C)C; Ahx = NCCCCCC(=O)O

Tests used:
[1] = Toxicity in rat assessed as morphological changes in pancreas at 150 to 225 microg/kg, iv; type: tissue-based; details: in vivo, dose 150-225 µg/kg
[2] = Toxicity in rat assessed as morphological changes in diameter of aorta at 150 to 225 microg/kg, iv; type: tissue-based; details: in vivo, dose 150-225 µg/kg
[3] = Toxicity in rat assessed as morphological changes in cerebral membrane at 150 to 225 microg/kg, iv; details: in vivo, dose 150-225 µg/kg
[4] = Toxicity in rabbit assessed as morphological changes in urinary bladder at 81 to 122 microg/kg, iv; design: species or system Oryctolagus cuniculus; details: in vivo, dose 81-122 µg/kg
Salmonella typhimurium [5] = experiment: Mutagenecity in Salmonella typhimurium TA98 in presence of metabolic activation system at 10000 ug/ml by Ames test; type: toxicity, organism-based; details: salmonella enterica subsp. enterica serovar typhimurium; dose 10000 µg/ml
[6] = Toxicity in rabbit assessed as morphological changes in brain ventricle at 81 to 122 microg/kg, iv; type: tissue-based, Oryctolagus cuniculus; details: in vivo, dose 81-122 µg/kg
[7] = Toxicity in rabbit morphological change in mucosae of mouth at 81 to 122 microg/kg, iv; type: tissue-based, Oryctolagus cuniculus; details: in vivo, dose 81-122 µg/kg
[8] = Chronic toxicity in rat assessed as change in acidity at […], iv administered once every 3 weeks for 3 months; type: organism-based; details: in vivo, 504 h, dose lower 150 mg/kg
[9] = Toxicity in rabbit assessed as morphological changes in peritoneum at 81 to 122 microg/kg, iv; type: tissue-based, Oryctolagus cuniculus; details: in vivo, dose 81-122 µg/kg
[10] = Toxicity in rat assessed as morphological changes in loops of colon at 150 to 225 microg/kg, iv; type: tissue-based; details: in vivo, dose 150-225 µg/kg
Salmonella typhimurium [11] = experiment: Mutagenecity in Salmonella typhimurium TA100 in presence of metabolic activation system at 10000 ug/ml by Ames test; type: toxicity, organism-based; details: salmonella enterica subsp. enterica serovar typhimurium; dose 10000 µg/ml
Salmonella typhimurium [12] = experiment: Mutagenecity in Salmonella typhimurium TA100 in presence of metabolic activation system at 1 ug/ml by Ames test; type: toxicity, organism-based; details: salmonella enterica subsp. enterica serovar typhimurium; dose 1 µg/ml
[13] = Toxicity in rat assessed as morphological changes in gastric wall mucosa at 150 to 225 microg/kg, iv; details: in vivo, dose 150-225 µg/kg
[14] = Toxicity in rabbit assessed as morphological changes in abdominal cavity at 81 to 122 microg/kg, iv; design: species or system Oryctolagus cuniculus; details: in vivo, dose 81-122 µg/kg
CWR22R = experiment: Induction morphological changes in human 22Rv1 cells assessed as decrease in cell membrane stiffness measured upto 1 hr; type: functional, cell-based; details: time hrs <=1
PC-3 = experiment: Induction morphological changes in human PC-3 cells assessed as decrease in cell membrane stiffness measured upto 1 hr; type: functional, cell-based; details: time hrs <=1
[15] = Stability of compound at pH 5.6 assessed as recombinant cathepsin B mediated hydrolysis by measuring MMAE release by HPLC-MS analysis; type: physicochemical; details: buffer
[16] = Chronic toxicity in rat assessed as reduced volume of urine at […], iv administered once every 3 weeks for 3 months; type: organism-based; details: in vivo, 504 h, dose lower 150 mg/kg
[17] = Toxicity in rat assessed as morphological changes in adrenal medulla at 150 to 225 microg/kg, iv; details: in vivo, dose 150-225 µg/kg
[18] = Toxicity in rat assessed as morphological changes in mucosa of thyroid gland at 150 to 225 microg/kg, iv; type: tissue-based; details: in vivo, dose 150-225 µg/kg
Cytochrome P450 3A4 [19] = molecular target: T1, Cytochrome P450 3A4 (Homo sapiens, UniProt P08684); experiment: Inhibition of CYP3A4 in human liver microsome using midazolam as substrate; type: ADME, microsomes
[20] = Stability of the compound in human liver microsome assessed as half life; type: ADME; details: liver microsomes
[21] = Stability of the compound in mouse liver microsome; type: ADME; details: microsomes
[22] = Toxicity in rabbit assessed as morphological changes in bronchi at 81 to 122 microg/kg, iv; design: species or system Oryctolagus cuniculus; details: in vivo, dose 81-122 µg/kg
[23] = Half life in Wistar rat at 1.5 mg/kg, iv; type: ADME, organism-based; details: in vivo
Cytochrome P450 2C9 = Cytochrome P450 2C9 (Homo sapiens, UniProt P11712); experiment: Drug metabolism assessed as human liver microsome CYP2C9-mediatd metabolism; type: ADME; details: microsomes
Cytochrome P450 1A2 = molecular target: T2, Cytochrome P450 1A2 (Homo sapiens, UniProt P05177); experiment: Drug metabolism assessed as human liver microsome CYP1A2-mediatd metabolism; type: ADME; details: microsomes
T2 sequence (P05177 whole entry): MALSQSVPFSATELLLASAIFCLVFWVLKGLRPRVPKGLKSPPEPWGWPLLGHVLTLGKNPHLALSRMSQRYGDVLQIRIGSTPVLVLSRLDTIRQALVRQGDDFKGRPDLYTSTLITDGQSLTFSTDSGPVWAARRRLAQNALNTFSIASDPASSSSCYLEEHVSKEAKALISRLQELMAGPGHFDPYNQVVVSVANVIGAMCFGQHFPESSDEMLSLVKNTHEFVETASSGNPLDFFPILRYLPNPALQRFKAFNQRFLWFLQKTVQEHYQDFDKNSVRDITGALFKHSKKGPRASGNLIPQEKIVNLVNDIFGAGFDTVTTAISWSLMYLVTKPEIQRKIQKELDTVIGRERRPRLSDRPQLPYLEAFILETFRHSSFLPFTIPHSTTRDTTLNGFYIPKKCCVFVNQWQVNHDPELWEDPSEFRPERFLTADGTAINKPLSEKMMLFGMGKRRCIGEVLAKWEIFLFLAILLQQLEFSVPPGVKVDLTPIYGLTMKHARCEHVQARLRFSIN

[24] = Toxicity in rabbit assessed as traumatic vein injury at 81 to 122 microg/kg, iv; type: tissue-based, Oryctolagus cuniculus; details: in vivo, dose 81-122 µg/kg
Salmonella typhimurium [25] = experiment: Mutagenecity in Salmonella typhimurium TA100 in presence of metabolic activation system at 10 ug/ml by Ames test; type: toxicity, organism-based; details: salmonella enterica subsp. enterica serovar typhimurium; dose 10 µg/ml
[26] = Toxicity in rabbit assessed as morphological changes in cerebral membrane at 81 to 122 microg/kg, iv; design: species or system Oryctolagus cuniculus; details: in vivo, dose 81-122 µg/kg
[27] = Toxicity in rabbit assessed as morphological changes in pancreas at 81 to 122 microg/kg, iv; type: tissue-based, Oryctolagus cuniculus; details: in vivo, dose 81-122 µg/kg
[28] = Toxicity in rabbit assessed as morphological changes in mucosa of trachea at 81 to 122 microg/kg, iv; type: tissue-based, Oryctolagus cuniculus; details: in vivo, dose 81-122 µg/kg
Cytochrome P450 3A4 [29] = molecular target: T1, Cytochrome P450 3A4; experiment: Drug metabolism assessed as human liver microsome CYP3A4-mediatd metabolism; type: ADME; details: microsomes
[30] = Toxicity in rat assessed as morphological changes in spleen at 150 to 225 microg/kg, iv; type: tissue-based; details: in vivo, dose 150-225 µg/kg
[31] = Toxicity in rat assessed as morphological changes in capsule of the kidney at 150 to 225 microg/kg, iv; type: tissue-based; details: in vivo, dose 150-225 µg/kg
Salmonella typhimurium [32] = experiment: Mutagenecity in Salmonella typhimurium TA98 in presence of metabolic activation system at 1000 ug/ml by Ames test; type: toxicity, organism-based; details: salmonella enterica subsp. enterica serovar typhimurium; dose 1000 µg/ml
Salmonella typhimurium [33] = experiment: Mutagenecity in Salmonella typhimurium TA100 in presence of metabolic activation system at 1000 ug/ml by Ames test; type: toxicity, organism-based; details: salmonella enterica subsp. enterica serovar typhimurium; dose 1000 µg/ml
[34] = Acute toxicity in iv dosed Wistar rat assessed as maximum tolerated dose; type: organism-based; details: in vivo, read-out: MNTD
[35] = Toxicity in rabbit assessed as morphological changes in adrenal medulla at 81 to 122 microg/kg, iv; design: species or system Oryctolagus cuniculus; details: in vivo, dose 81-122 µg/kg
[36] = Toxicity in rabbit assessed as morphological changes in aortic intima at 81 to 122 microg/kg, iv; design: species or system Oryctolagus cuniculus; details: in vivo, dose 81-122 µg/kg
Oryctolagus cuniculus = organism: Oryctolagus cuniculus; experiment: Induction of morphological change in heart of rabbit; type: organism-based; details: in vivo
[37] = Elimination rate constant in rabbit at 0.81 mg/kg, iv; type: ADME, organism-based, Oryctolagus cuniculus; details: in vivo

T1 sequence (P08684 whole entry): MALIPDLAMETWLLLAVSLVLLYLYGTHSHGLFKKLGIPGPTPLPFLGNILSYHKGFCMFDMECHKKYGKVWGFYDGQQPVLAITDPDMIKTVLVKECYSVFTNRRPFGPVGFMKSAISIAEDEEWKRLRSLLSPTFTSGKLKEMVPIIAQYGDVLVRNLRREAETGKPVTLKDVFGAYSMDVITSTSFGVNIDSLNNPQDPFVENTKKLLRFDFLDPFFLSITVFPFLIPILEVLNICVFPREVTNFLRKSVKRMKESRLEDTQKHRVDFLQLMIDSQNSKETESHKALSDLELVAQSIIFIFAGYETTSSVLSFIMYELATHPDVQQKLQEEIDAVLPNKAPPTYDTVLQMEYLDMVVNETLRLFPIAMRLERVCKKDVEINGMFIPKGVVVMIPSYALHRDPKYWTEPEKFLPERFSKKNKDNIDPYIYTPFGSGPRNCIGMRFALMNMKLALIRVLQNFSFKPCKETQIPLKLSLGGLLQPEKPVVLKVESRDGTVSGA
Sequence of Cytochrome P450 2C9 (P11712 whole entry): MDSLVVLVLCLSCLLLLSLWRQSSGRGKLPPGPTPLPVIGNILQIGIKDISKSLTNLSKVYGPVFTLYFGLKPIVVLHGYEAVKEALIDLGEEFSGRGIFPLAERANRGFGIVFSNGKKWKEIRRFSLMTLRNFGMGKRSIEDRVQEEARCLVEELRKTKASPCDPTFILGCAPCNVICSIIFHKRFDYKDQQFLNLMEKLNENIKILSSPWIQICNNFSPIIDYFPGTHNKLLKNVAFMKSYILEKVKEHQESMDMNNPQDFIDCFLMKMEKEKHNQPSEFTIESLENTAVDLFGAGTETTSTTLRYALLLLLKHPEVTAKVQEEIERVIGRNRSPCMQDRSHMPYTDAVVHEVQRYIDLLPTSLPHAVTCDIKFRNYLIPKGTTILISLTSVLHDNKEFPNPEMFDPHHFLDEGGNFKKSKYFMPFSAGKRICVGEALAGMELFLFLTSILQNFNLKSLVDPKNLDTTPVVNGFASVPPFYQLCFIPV

CC[C@H](C)[C@@H]([C@@H](CC(=O)N1CCC[C@H]1[C@H](OC)[C@@H](C)C(=O)N[C@H](C)[C@@H](O)c1ccccc1)OC)N(C)C(=O)[C@@H](NC(=O)[C@H](C(C)C)N(C)C(=O)OCc1ccc(NC(=O)[C@H](CCCNC(N)=O)NC(=O)[C@@H](NC(=O)CCCc2cn(CCCNC(=O)[C@H](Cc3ccc(O)cc3)NC(=O)[C@H](Cc3ccccc3)NC(=O)CCC(=O)NCCCCCC(=O)N(CCCC[C@H](NC(=O)N[C@@H](CCC(=O)O)C(=O)O)C(=O)O)Cc3cccc(Cl)c3)nn2)C(C)C)cc1)C(C)C ({GluureaLys(ε-3-ClBenzyl)-Ahx-Suc}-FY[X1]V[Cit][PABC][NMeV]V[Dil][Dolaproine]-X2)
Activity [1]: Non-Toxic
Activity [2]: Non-Toxic
Activity [3]: Non-Toxic
Activity [4]: Non-Toxic
Activity (Salmonella typhimurium [5]): Non-Toxic
Activity [6]: Non-Toxic
Activity [7]: Non-Toxic
Activity [8]: Toxic
Activity [9]: Non-Toxic
Activity [10]: Non-Toxic
Activity (Salmonella typhimurium [11]): Non-Toxic
Activity (Salmonella typhimurium [12]): Non-Toxic
Activity [13]: Non-Toxic
Activity [14]: Non-Toxic
Activity (CWR22R): Active
Activity (PC-3): Active
Stability [15]: Unstable
Activity [16]: Toxic
Activity [17]: Non-Toxic
Activity [18]: Non-Toxic
pIC50 (Cytochrome P450 3A4 [19]): 4.95
half-life [20]: 0.572 h
Stability [21]: Unstable
Activity [22]: Non-Toxic
half-life [23]: 4.7 h
Drug metabolism (Cytochrome P450 2C9): Metabolite_Notdetected
Drug metabolism (Cytochrome P450 1A2): Metabolite_Notdetected
Activity [24]: Toxic
Activity (Salmonella typhimurium [25]): Non-Toxic
Activity [26]: Non-Toxic
Activity [27]: Non-Toxic
Activity [28]: Non-Toxic
Drug metabolism (Cytochrome P450 3A4 [29]): Metabolite_Notdetected
Activity [30]: Non-Toxic
Activity [31]: Non-Toxic
Activity (Salmonella typhimurium [32]): Non-Toxic
Activity (Salmonella typhimurium [33]): Non-Toxic
MTD [34]: 4 mg/kg
Activity [35]: Non-Toxic
Activity [36]: Non-Toxic
Activity (Oryctolagus cuniculus): Non-Toxic
k el [37]: 4.72e-05 s⁻¹
